# Laboratory results published in US11213506B2, “Combination therapy for the treatment or prevention of tumours” (QBIOTICS PTY LTD, priority 2017, dated 2022).
# Tests used:
# [1] = system: CD11c+ BMDCs with B16-OVA cells; assay: BMDC uptake of epoxytigliane treated B16-OVA cells; type: cell-based, C57Bl/6 mice
# Protocol: The tibias and […] from four 7-8 week old C57Bl/6 mice were first surgically removed under sterile conditions. The marrow was flushed from the bone cavity with 10 ml of ice cold R10 media (using a 27G needle/syringe into a 50 ml polypropylene tube). Cells were pelleted at 1,500 rpm for 5 mins and washed ×2 with ice cold R10 media. After resuspension of the pellet into 10 ml of ice cold R10 medium, cells were counted using an improved haemocytometer and plated at a density of 2×10^6 cells per plate (petri dish) in 10 ml of R10 supplemented with 20 ng/ml murine GM-CSF. All plates were incubated at 37° C., 5% CO2 and at day 3 an additional 10 ml R10 with 20 ng/ml GM-CSF was added. Cells were again fed at day 6 and used for downstream assays on day 7.
# Prior to co-incubation with BMDCs, B16-OVA cells were trypsinised, centrifuged at 1,200 rpm for 4 mins to pellet cells and washed ×2 with complete medium. Cells were then stained with 2 μM Cell Tracker Green in complete medium for 45 mins, after which they were pelleted and washed ×2 as above. Labelled B16-OVA cells were subsequently treated with Compounds 1, 2, 3 and 4 at two concentrations (500 or 300 μM) in media at a density of 1×10^6 cells/ml for 30 and 60 mins, after which cells were pelleted via centrifugation, supernatant removed via aspiration and the cell pellet washed ×1 with complete media. After the wash, the treated cells were resuspended in R10 media, inserted into the wells of a 6-well plate (Corning, #3471. Ultra low attachment surface) and BMDCs added. Co-cultures were incubated for 4 h after which cell suspensions were transferred to a microfuge tube and centrifuged at 1,500 rpm for 5 mins. Pellets were resuspended in 100 μl FACs buffer containing anti-CD11c-APC and incubated for 10 mins at 4° C. Cells were again pelleted, washed ×1 with FACs buffer and then fixed using PBS, 1% formaldehyde for 10 mins. After centrifugation and removal of the supernatant, cells were resuspended in 500 μl FACs buffer in preparation for flow cytometry.
# Samples were first gated by FSC-H v FSC-A, then SSC-H v SS-A to identify single cells. The proportion of CD11c^+ cells (Ex: 640 nm, Em: 670/14) with CMFDAmid (Ex: 488 nm, Em: 530/30) were then determined for treated and untreated cells as a percentage of all CD11c^+ cells.
# A431 cells = assay: IncuCyte cytotoxicity assay (propidium iodide); type: cell-based, human; conditions: 500 μM
# Protocol: (§1) A431 (human epidermoid carcinoma), MM649 (human melanoma), B16-OVA (B16-F10 mouse melanoma cell line stably transfected with chicken ovalbumin), MM415 (human melanoma) and FaDu (human hypopharyngeal carcinoma) cells were cultured in RPMI-1640, 10% FCS (complete medium) at 37° C., 5% CO2 in a humidified incubator. All cell lines used in this study were confirmed as mycoplasma negative using MycoAlert (Lonza). STR profiling was also performed to confirm the identity of the human cell lines used.
# (§2) Four cancer cell lines (A431, MM649 (human melanoma), FaDu (HNSCC) and MM415 (human melanoma) were assessed for their response to epoxytigliane treatment. Cells were plated at a density of 10,000 cells per well (100 μl of complete media) into clear bottom black 96-well plates (Corning, #3603). Following 24 h incubation, the media within each well was aspirated and replaced with 50 μl of fresh media containing 1 μg/ml propidium iodide (PI). Stock solutions (20 mg/ml in ethanol) of four epoxytiglianes (Compounds 1, 2, 3 and 4) were diluted to 2× final assay concentration (1 mM) in identical media and inserted into a U-bottom 96 well plate in preparation for transfer. 50 μl of dilution was added to the required wells and the resultant plates inserted into an Essen Biosciences IncuCyte in preparation for imaging. Images were acquired at various time points (30 min, 1 h and at hourly intervals) for a total of 24 h.
# MM415 cells = assay: IncuCyte cytotoxicity assay (propidium iodide); type: cell-based, human; conditions: 500 μM
# Protocol: as §1, §2
# MM649 cells = assay: IncuCyte cytotoxicity assay (propidium iodide); type: cell-based, human; conditions: 500 μM
# Protocol: as §1, §2
# FaDu cells = assay: IncuCyte cytotoxicity assay (propidium iodide); type: cell-based, human; conditions: 500 μM
# Protocol: as §1, §2
# B16-OVA cells = assay: Lactate dehydrogenase (LDH) release assay; type: cell-based, mouse; conditions: 300 μM and 500 μM
# Protocol: as §1
# Measuring the release of LDH is a well-recognised assay to assess plasma membrane permeabilisation and detect cell death by necrosis (Chan et al. 2013). Three cell lines (A431, MM649 and B16-OVA) were used in these assays. Cells were plated at a density of 10,000 cells per well into clear 96-well plates (Corning, #3595; 100 μl of complete media) and the resultant plates incubated overnight as previously detailed. The following day, media was aspirated from each well and 50 μl of fresh medium was inserted. Stock solutions of Compound 1 were diluted to 2× final assay concentrations (1 mM and 600 μM) and 50 μl of these dilutions added to the required wells. […] OD490 nm and OD690 nm readings were recorded for each sample using a Hybrid Synergy H4 plate reader. Absorbance readings from drug treated samples were normalized to detergent treated controls to determine the % LDH release per well.
# [2] = after 120 minutes, majority of cells
# [3] = differing extents and kinetics of onset
compound,measurement,setting,value
"C/C=C(\C)C(=O)O[C@@H]1[C@@H](C)[C@@]2(O)[C@H]([C@@H]3C(C)(C)[C@]13OC(=O)[C@@H](C)CC)[C@@H]1O[C@]1(CO)[C@@H](O)[C@]1(O)C(=O)C(C)=C[C@H]12 [Compound 1, 12-tigloyl-13-(2-methylbutanoyl)-6,7-epoxy-4,5,9,12,13,20-hexahydroxy-1-tiglien-3-one]",dependence of antigen uptake on concentration and treatment time,[1]; 500 μM compared to the use of 300 μM,antigen uptake occurs to a greater extent after a shorter treatment time
same,uptake of dying cancer cell fragments by CD11c+ dendritic cells/macrophages (BMDCs),"[1]; B16-OVA treated at 500 or 300 μM for 30 and 60 mins, 4 h co-culture",promotes the uptake
same,propidium iodide staining (loss of plasma membrane integrity),A431 cells; [2],strong red staining
same,"cell morphology (cytoplasmic swelling, blistering)",A431 cells; [3],significant cytoplasmic swelling and ‘blistering’
same,propidium iodide staining (loss of plasma membrane integrity),MM415 cells; [2],strong red staining
same,"cell morphology (cytoplasmic swelling, blistering)",MM415 cells; [3],significant cytoplasmic swelling and ‘blistering’
same,propidium iodide staining (loss of plasma membrane integrity),MM649 cells; [2],strong red staining
same,"cell morphology (cytoplasmic swelling, blistering)",MM649 cells; [3],significant cytoplasmic swelling and ‘blistering’
same,propidium iodide staining (loss of plasma membrane integrity),FaDu cells; [2],strong red staining
same,"cell morphology (cytoplasmic swelling, blistering)",FaDu cells; [3],significant cytoplasmic swelling and ‘blistering’
same,LDH release compared to the controls,B16-OVA cells,significant release of LDH
